Legend:
NCI-H441 = experiment: Tumor growth inhibition in xenograft model; assay type: in vivo, athymic nude mice
Experimental: Three human tumor cell lines, NCI-H441, MDA-MB-231, and SNU-5, were selected for use in tumor xenograft studies using athymic nude, NSG and CB.17 SCID mice, respectively. Pharmacodynamic modulation of MET phosphorylation was also measured in the NCI-H441 and SNU-5 xenografts. Tumor-bearing mice were orally dosed once-daily for 14 days (qd×14), and the tumors were resected and processed for MET phosphorylation analysis by Western blot. […]

[1] = In vitro plasma protein binding; assay type: in vitro ADME, human
Experimental: Plasma PK of Compound 1 was characterized in rats and beagle dogs. Toxicokinetic (TK) evaluations of oral Compound 1 were evaluated in repeat-dose studies in rats and dogs. Plasma protein binding was determined in mouse, rat, dog, monkey, and human plasma in vitro. Biotransformation and metabolite profiling of Compound 1 were investigated in vitro using mouse, rat, dog, monkey, and human liver microsomal fractions and hepatocytes and in vivo in rats and dogs. P-glycoprotein (P-gp) and breast cancer resistance protein (BCRP) transporter interaction studies, in vitro experiments evaluating cytochrome P450 (CYP) induction and inhibition by Compound 1, and CYP and glucuronosyltransferase (UGT) substrate specificity studies of Compound 1 were also performed.
Compound 1 (10 μM) was 97.2 and 97.5% protein bound in monkey and human plasma, respectively.

CYP2C19 = experiment: Cytochrome P450 induction (mRNA levels) in fresh primary human hepatocytes; assay type: in vitro ADME
[2] = Liver microsomal stability assay; assay type: in vitro ADME, mouse; conditions: liver microsomes
Experimental: (§1) In the liver microsomal stability assay, CLint was 0.601 mL/min/g liver in mouse, 0.563 mL/min/g liver in rat, 0.315 mL/min/g liver in dog, 0.734 mL/min/g liver in monkey, and 0.639 mL/min/g liver in human. In the hepatocyte stability assay, Compound 1 CLint was 0.373 mL/min/g liver in mouse, 0.285 mL/min/g liver in rat, 1.08 mL/min/g liver in dog, 0.533 mL/min/g liver in monkey, and 0.317 mL/min/g liver in human.

[3] = Liver microsomal stability assay; assay type: in vitro ADME, rat; conditions: liver microsomes
Experimental: as §1

[4] = Hepatocyte stability assay; assay type: in vitro ADME, mouse; conditions: hepatocytes
Experimental: as §1

[5] = Hepatocyte stability assay; assay type: in vitro ADME, rat; conditions: hepatocytes
Experimental: The mean plasma t1/2, z values were approximately 9 hours in rats and 4 hours in dogs. Interspecies scaling based on body weight to predict PK parameters in humans could not be performed because dogs (larger species) cleared Compound 1 faster than rats (smaller species). Therefore, the human PK was projected based on one species (rat). […] This apparent clearance value (CL/F) was used to predict steady-state exposure (AUC and average plasma concentration [Cavg]) in humans for the proposed first-in-human (FIH) starting dose for Study Compound 1-001.
as §1

MER = MER (Homo sapiens, UniProt Q12866); experiment: RTK autophosphorylation ELISA, 293A cells transfected with receptor expression vector; assay type: cell-based; set-up: expressed in transfected cells; host or cells: 293A; conditions: no ligand, read-out: Cellular IC50
Experimental: The activity of Compound 1 was evaluated in cell-based assays that assessed the mechanistic effects of the compound in tumor and normal cells. Consistent with the biochemical data, Compound 1 is a potent inhibitor of cellular RTKs as assessed by analysis of receptor autophosphorylation as measured by enzyme-linked immunosorbent assay. Assays were performed using cell lines (PC-3, HUVEC, and A-172) stimulated with ligands to their respective receptors to induce autophosphorylation (MET, VEGFR2, and AXL) or a cell line (293A) transfected with an expression vector encoding the receptor of interest (MER). Inhibition of endogenous phosphorylated MET by Compound 1 in Hs 746T gastric carcinoma cells was also investigated due to the presence of the skip-splice mutation of exon 14 in the MET gene. This MET exon 14 alteration leads to increased MET stability and oncogenic activation, including constitutive MET phosphorylation. Also this mutation is known to occur in 3% of lung adenocarcinoma patients and to be sensitive to MET-targeted therapies (Frampton et al 2015).

Sequence of MER (Q12866 21-999): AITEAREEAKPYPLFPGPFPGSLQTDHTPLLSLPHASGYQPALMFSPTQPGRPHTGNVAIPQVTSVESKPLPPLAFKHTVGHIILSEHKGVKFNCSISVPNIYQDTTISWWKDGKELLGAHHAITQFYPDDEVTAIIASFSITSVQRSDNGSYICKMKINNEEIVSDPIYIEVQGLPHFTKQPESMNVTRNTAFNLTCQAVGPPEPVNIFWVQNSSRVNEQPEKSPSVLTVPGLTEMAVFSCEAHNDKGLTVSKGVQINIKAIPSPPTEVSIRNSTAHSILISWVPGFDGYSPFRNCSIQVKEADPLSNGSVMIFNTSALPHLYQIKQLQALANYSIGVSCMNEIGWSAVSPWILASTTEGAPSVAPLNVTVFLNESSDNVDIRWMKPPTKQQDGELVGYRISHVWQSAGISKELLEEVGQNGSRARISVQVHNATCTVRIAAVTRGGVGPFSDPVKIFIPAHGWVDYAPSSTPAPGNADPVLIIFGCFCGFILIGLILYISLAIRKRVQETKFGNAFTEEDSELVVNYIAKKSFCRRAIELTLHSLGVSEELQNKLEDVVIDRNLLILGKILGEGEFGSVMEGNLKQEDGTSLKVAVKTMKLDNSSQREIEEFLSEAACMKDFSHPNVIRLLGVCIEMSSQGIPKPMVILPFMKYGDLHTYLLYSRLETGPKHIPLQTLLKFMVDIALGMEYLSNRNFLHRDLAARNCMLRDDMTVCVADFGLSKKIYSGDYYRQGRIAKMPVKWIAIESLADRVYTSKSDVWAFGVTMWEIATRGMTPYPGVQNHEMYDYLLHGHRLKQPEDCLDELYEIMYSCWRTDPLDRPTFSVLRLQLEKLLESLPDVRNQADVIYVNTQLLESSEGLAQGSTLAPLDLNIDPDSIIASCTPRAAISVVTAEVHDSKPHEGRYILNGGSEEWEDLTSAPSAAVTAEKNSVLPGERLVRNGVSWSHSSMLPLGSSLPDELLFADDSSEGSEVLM

CNC(=O)c1cc2c(Oc3ccc(NC(=O)C4(C(=O)Nc5ccc(F)cc5)CC4)cc3)ccnc2cc1OC [Compound 1, 1-N′-(4-Fluorophenvl)-1-N-[4-[7-methoxy-6-(methylcarbamovl)quinolin-4-yl]oxyphenyl]cyclopropane-1,1-dicarboxamide]
TGI (%) (NCI-H441; 3 mg/kg qd × 14 oral, p-value 0.0115): 63.3%
TGI (%) (NCI-H441; 10 mg/kg qd × 14 oral, p-value <0.0001): regression
protein bound ([1]; 10 μM): 97.5%
fraction unbound ([1]; human, plasma, 0.2 and 1 μM): < 0.01
EC50 (CYP2C19; human, fresh primary human hepatocytes, mRNA induction, read-out: half-maximal effective concentration (EC50)): 6.21 µM
maximal induction effect (Emax) (CYP2C19; mRNA, 0.1-100 μM): 6 fold
CLint [2]: 0.601 mL/min/g liver
CLint [3]: 0.563 mL/min/g liver
CLint [4]: 0.373 mL/min/g liver
CLint [5]: 0.285 mL/min/g liver
IC50 (MER): 7.1 nM

Source: patent publication US12673052B2, “Combinations for the treatment of cancer” (Exelixis, Inc., priority 2020, dated 2026)
